Experimental data taken from patent US20100144708A1, “HETEROCYCLIC COMPOUNDS CONTAINING NITROGEN ATOMS OR PHARMACEUTICALLY ACCEPTABLE SALTS THEREOF, PROCESS FOR THE PREPARATION THEREOF AND PHARMACEUTICAL COMPOSITION COMPRISING THE SAME FOR TREATMENT OF CANCER” (Korea Research Instititute of Bioscience and Biotechnology, priority 2006, published 2010).

Key:
Type in all cases: cell-based, Human
[1] = system: MBA-MB-231 (breast cancer); assay: Test for inhibition of tumor cell growth (SRB), MBA-MB-231; conditions: Homo sapiens; 48 hours, SRB staining
Summary of the method: (§1)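 Cells seeded in RPMI 1640 with 5% FBS, exposed to compound (final […], units as printed) for 48 hours at 37° C with 5% CO2, including a time-zero plate. TCA-fixed, SRB-stained, absorbance at 540 nm as percent of control; GI50 is the 50% growth-inhibition concentration.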

ACHN (kidney cancer) = assay: Test for inhibition of tumor cell growth (SRB), ACHN; conditions: Homo sapiens, ACHN; 48 hours, SRB staining
Summary of the method: as §1

NUGC-3 (gastric cancer) = assay: Test for inhibition of tumor cell growth (SRB), NUGC-3; conditions: Homo sapiens, NUGC-3; 48 hours, SRB staining
Summary of the method: as §1

PC-3 (prostate cancer) = assay: Test for inhibition of tumor cell growth (SRB), PC-3; conditions: Homo sapiens; 48 hours, SRB staining; read-out: GI50 PC-3 (prostate ancer)
Summary of the method: as §1

| SMILES | GI50 [1] | GI50 (ACHN (kidney cancer)) | GI50 (NUGC-3 (gastric cancer)) | GI50 (PC-3 (prostate cancer)) |
| --- | --- | --- | --- | --- |
| CCCCCCCCCCS(=O)(=O)N1CC[N+](C)(CC)CC1 [Example 78, 4-(decane-1-sulfonyl)-1-ethyl-1-methyl-piperazin-1-ium iodide] | > 10 µg/mL | 4.15 µg/mL | 1.81 µg/mL | 1.06 µg/mL |
| CCCCCCCCCCS(=O)(=O)N1CC[N+](CC)(Cc2ccccc2)CC1 [Example 79, 1-benzyl-4-(decane-1-sulfonyl)-1-ethyl-piperazin-1-ium bromide] | > 10 µg/mL | 4.41 µg/mL | 1.24 µg/mL | 0.85 µg/mL |
| C=CC[N+]1(CC)CCN(S(=O)(=O)CCCCCCCCCC)CC1 [Example 80, 1-allyl-4-(decane-1-sulfonyl)-1-ethyl-piperazin-1-ium bromide] | > 10 µg/mL | 3.07 µg/mL | 0.89 µg/mL | 0.85 µg/mL |
| CCCCCCCCCCCCS(=O)(=O)N1CC[N+](C)(Cc2ccccc2)CC1 [Example 81, 1-benzyl-4-(dodecane-1-sulfonyl)-1-methyl-piperazin-1-ium bromide] | 1.49 µg/mL | 1.48 µg/mL | 0.58 µg/mL | 0.61 µg/mL |
| C=CC[N+]1(C)CCN(S(=O)(=O)CCCCCCCCCCCC)CC1 [Example 82, 1-allyl-4-(dodecane-1-sulfonyl)-1-methyl-piperazin-1-ium bromide] | 1.4 µg/mL | 0.86 µg/mL | 0.75 µg/mL | 0.71 µg/mL |
| CCCCCCCCCCCCS(=O)(=O)N1CC[N+](C)(CC)CC1 [Example 83, 4-(dodecane-1-sulfonyl)-1-ethyl-1-methyl-piperazin-1-ium iodide] | 1.42 µg/mL | 0.69 µg/mL | 0.45 µg/mL | 0.61 µg/mL |
| CCCCCCCCCCCCS(=O)(=O)N1CC[N+](CC)(Cc2ccccc2)CC1 [Example 84, 1-benzyl-4-(dodecane-1-sulfonyl)-1-ethyl-piperazin-1-ium bromide] | 1.35 µg/mL | 1.12 µg/mL | 0.75 µg/mL | 0.74 µg/mL |
| C=CC[N+]1(CC)CCN(S(=O)(=O)CCCCCCCCCCCC)CC1 [Example 85, 1-allyl-4-(dodecane-1-sulfonyl)-1-ethyl-piperazin-1-ium bromide] | 1.01 µg/mL | 0.53 µg/mL | 0.22 µg/mL | 0.41 µg/mL |
| CCCCCCCCCCS(=O)(=O)N1CC[N+](C)(Cc2ccc(F)cc2)CC1 [Example 86, 4-(decane-1-sulfonyl)-1-(4-fluorobenzyl)-1-methyl-piperazin-1-ium bromide] | 4.48 µg/mL | 3.79 µg/mL | 1.99 µg/mL | 0.88 µg/mL |
| CCCCCCCCCCS(=O)(=O)N1CC[N+](CC)(Cc2ccc(F)cc2)CC1 [Example 87, 4-(decane-1-sulfonyl)-1-ethyl-1-(4-fluorobenzyl)-piperazin-1-ium bromide] | > 10 µg/mL | > 10 µg/mL | 1.56 µg/mL | 1.25 µg/mL |
| CCCCCCCCCCCCS(=O)(=O)N1CC[N+](C)(Cc2ccc(F)cc2)CC1 [Example 88, 4-(dodecane-1-sulfonyl)-1-(4-fluorobenzyl)-1-methyl-piperazin-1-ium bromide] | 1.59 µg/mL | 1.37 µg/mL | 0.93 µg/mL | 0.68 µg/mL |
| CCCCCCCCCS(=O)(=O)N1CC[N+](CC)(Cc2cccc([N+](=O)[O-])c2)CC1 [Example 89, 1-ethyl-1-(3-nitrobenzyl)-4-(nonylsulfonyl)piperazin-1-ium bromide] | > 10 µg/mL | > 10 µg/mL | > 10 µg/mL | 4.02 µg/mL |
| CCCCCCCCCCCCS(=O)(=O)N1CC[N+](C)(Cc2ccc(C)cc2)CC1 [Example 90, 4-(dodecane-1-sulfonyl)-1-methyl-1-(4-methylbenzyl)piperazin-1-ium bromide] | 2.56 µg/mL | 3.22 µg/mL | 1.98 µg/mL | 1.57 µg/mL |
| CCCCCCCCCCS(=O)(=O)N1CC[N+](CC)(Cc2cccc([N+](=O)[O-])c2)CC1 [Example 91, 4-(decane-1-sulfonyl)-1-ethyl-1-(3-nitrobenzyl)piperazin-1-ium bromide] | > 10 µg/mL | 4.82 µg/mL | 1.54 µg/mL | 0.83 µg/mL |
| CCCCCCCCCCCS(=O)(=O)N1CC[N+](CC)(CC)CC1 [Example 92, 1,1-diethyl-4-(undecane-1-sulfonyl)piperazin-1-ium iodide] | 1.62 µg/mL | 0.81 µg/mL | 0.21 µg/mL | 0.45 µg/mL |
| CCCCCCCCCCCS(=O)(=O)N1CC[N+](C)(CC)CC1 [Example 93, 1-ethyl-1-methyl-4-(undecane-1-sulfonyl)piperazin-1-ium iodide] | 2.71 µg/mL | 1.11 µg/mL | 0.62 µg/mL | 0.67 µg/mL |
| CCCCCCCCCCCCCCS(=O)(=O)N1CC[N+](CC)(CC)CC1 [Example 94, 1,1-diethyl-4-(tetradecane-1-sulfonyl)piperazin-1-ium iodide] | 0.46 µg/mL | 0.31 µg/mL | 0.37 µg/mL | 0.53 µg/mL |
| CCCCCCCCCCCCCCS(=O)(=O)N1CC[N+](C)(CC)CC1 [Example 95, 1-ethyl-1-methyl-4-(tetradecane-1-sulfonyl)piperazin-1-ium iodide] | 0.64 µg/mL | 0.46 µg/mL | 2.24 µg/mL | 0.35 µg/mL |
| CCCCCCCCCCCCCCCCCCS(=O)(=O)N1CC[N+](C)(Cc2ccc(F)cc2)CC1 [Example 96, 1-(4-fluorobenzyl)-1-methyl-4-(octadecane-1-sulfonyl)piperazin-1-ium bromide] | 0.6 µg/mL | 3.25 µg/mL | 2.73 µg/mL | 0.48 µg/mL |
| CCCCCCCCCCCCS(=O)(=O)N1CC[N+](CC)(Cc2ccc(F)cc2)CC1 [Example 97, 4-(dodecane-1-sulfonyl)-1-ethyl-1-(4-fluorobenzyl)piperazin-1-ium bromide] | 1.43 µg/mL | 1.21 µg/mL | 0.66 µg/mL | 0.7 µg/mL |
| CCCCCCCCCCCCS(=O)(=O)N1CC[N+](CC)(Cc2cccc([N+](=O)[O-])c2)CC1 [Example 98, 4-(dodecane-1-sulfonyl)-1-ethyl-1-(3-nitrobenzyl)piperazin-1-ium bromide] | 1.01 µg/mL | 1.05 µg/mL | 0.28 µg/mL | 0.35 µg/mL |
| CCCCCCCCCS(=O)(=O)N1CC[N+](C)(CC)CC1 [Example 99, 1-ethyl-1-methyl-4-(nonane-1-sulfonyl)piperazin-1-ium iodide] | > 10 µg/mL | > 10 µg/mL | > 10 µg/mL | > 10 µg/mL |
| CCCCCCCCCS(=O)(=O)N1CC[N+](CC)(Cc2ccccc2)CC1 [Example 100, 1-benzyl-1-ethyl-4-(nonane-1-sulfonyl)piperazin-1-ium bromide] | > 10 µg/mL | > 10 µg/mL | 1.73 µg/mL | 4.08 µg/mL |
| C=CC[N+]1(CC)CCN(S(=O)(=O)CCCCCCCCC)CC1 [Example 101, 1-allyl-1-ethyl-4-(nonane-1-sulfonyl)piperazin-1-ium bromide] | > 10 µg/mL | > 10 µg/mL | 3.28 µg/mL | 2.34 µg/mL |
| CCCCCCCCCS(=O)(=O)N1CC[N+](C)(C)CC1 [Example 102, 1,1-dimethyl-4-(nonane-1-sulfonyl)piperazin-1-ium iodide] | > 10 µg/mL | > 10 µg/mL | > 10 µg/mL | > 10 µg/mL |
